According to article PMC11211886 (Frontiers in Pharmacology, 2024):
Values belong to the compound of their own block, whether it stands above or below them.

Experiments:
[1] = Caco-2 bidirectional transport permeability; type: in vitro ADME, human; details: human
Protocol: The passage number of cells used in this study was 39. Non-specific binding to the device surfaces and the aqueous solubility of test compounds were tested before the transport experiment. […] The integrity of the monolayer was estimated by measuring transepithelial electrical resistance (TEER). Only the monolayers with TEER over 150 Ω were used for the studies.

CYP1A2 mRNA = experiment: in vitro; details: human; for fold induction at 48 h, 50 µM: Gene expression Fold Induction
Protocol: (§1) […] […] […] Enzyme activity for each CYP isoform was reported as a fold change over vehicle control and the percent of positive control (detailed calculation in Supplementary 1.1). Hepatocytes were harvested with a lysis buffer from RNeasy 96 Kit (Qiagen Inc., Germantown, MD, USA) to isolate RNA, which was analyzed by real-time quantitative polymerase chain reaction (RT-PCR). […] Emax (the maximal observed induction) and EC50 (the concentration that supports half-maximal induction) were estimated by non-linear regression of fold increase in CYP mRNA expression versus concentration plots.
(§2) % of positive control = [(fold change in treated sample)-1] / [(fold change in positive control)-1] × 100
Based on the gene expression, a minimum of 4-fold increase of positive control compared to vehicle control, a minimum of 2-fold increase of the test article compared vehicle control and increased in a concentration-dependent manner was considered as the cutoff for a positive signal in in vitro induction assay.

CYP1A2 = experiment: in vitro; details: human; for fold induction at 48 h, 50 µM: Enzyme activity Fold Induction
Protocol: as §1
The fold of vehicle control and the percent of positive control were calculated with the formulas below:
Fold of vehicle control = CYPs activity of test compound (or positive control) treated sample / CYPs activity of vehicle control treated sample
as §2
Based on the enzyme activity, a minimum of 2-fold increase compared to vehicle control for the positive control and ≥40% of the positive control for the test article was considered as the cutoff for a positive signal in in vitro induction assay.

BCRP = biological target: T1, BCRP (Homo sapiens, UniProt Q9UNQ0); experiment: in vitro; details: Caco-2
T1 sequence (Q9UNQ0 1-655): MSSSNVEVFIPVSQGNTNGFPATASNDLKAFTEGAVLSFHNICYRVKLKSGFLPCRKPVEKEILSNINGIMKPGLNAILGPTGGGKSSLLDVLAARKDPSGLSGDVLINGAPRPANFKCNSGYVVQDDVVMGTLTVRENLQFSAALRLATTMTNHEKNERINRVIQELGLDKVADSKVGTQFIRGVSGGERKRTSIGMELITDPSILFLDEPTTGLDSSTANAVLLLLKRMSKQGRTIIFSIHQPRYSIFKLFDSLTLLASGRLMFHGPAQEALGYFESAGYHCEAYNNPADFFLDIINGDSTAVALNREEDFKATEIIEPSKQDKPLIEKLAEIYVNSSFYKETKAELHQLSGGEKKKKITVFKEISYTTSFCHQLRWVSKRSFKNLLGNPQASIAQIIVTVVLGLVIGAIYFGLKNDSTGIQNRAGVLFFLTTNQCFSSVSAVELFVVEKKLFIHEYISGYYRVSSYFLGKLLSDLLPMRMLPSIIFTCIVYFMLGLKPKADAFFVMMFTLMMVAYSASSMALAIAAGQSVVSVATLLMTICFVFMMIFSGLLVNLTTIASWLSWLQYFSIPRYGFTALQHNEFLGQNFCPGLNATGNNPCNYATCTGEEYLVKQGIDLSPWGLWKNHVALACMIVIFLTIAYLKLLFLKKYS
Description: The experimental conditions were similar to those of the permeability study.

[2] = clinical trials; ref FDA, 2014; FDA, 2017, 2018, 2021; cited from earlier work
[3] = among marketed PI3Kδ inhibitors; ref FDA, 2014; FDA, 2017, 2018, 2021; cited from earlier work
[4] = ref FDA, 2021; cited from earlier work

Papp A→B at 60 min, 10 µM [1]: 39.4 ×10⁻⁶ cm/s | Papp B→A at 60 min, 10 µM [1]: 36.8 ×10⁻⁶ cm/s | efflux ratio at 60 min, 10 µM [1]: 0.935
SMILES: COCCc1ccc(OCC(O)CNC(C)C)cc1 (centres unmarked) [Metoprolol, reference compound]

Gene expression Fold Induction (CYP1A2 mRNA; female, 48 h, 50 µM): 25.5 fold | fold induction at 48 h, 50 µM (CYP1A2 mRNA; female): 15.6 | fold induction at 48 h, 50 µM (CYP1A2 mRNA; male): 20.3 | Enzyme activity Fold Induction (CYP1A2; female, 48 h, 50 µM): 3.37 fold | fold induction at 48 h, 50 µM (CYP1A2; female): 4.95 | fold induction at 48 h, 50 µM (CYP1A2; male): 5.22
SMILES: COc1ccc2[nH]c([S+]([O-])Cc3ncc(C)c(OC)c3C)nc2c1 (centres unmarked) [Omeprazole]

Papp A-B of E3S (BCRP): 2.79 ×10–^6 cm/s | Papp B-A of E3S (BCRP): 77.8 ×10–^6 cm/s
SMILES: C[C@]12CC[C@@H]3c4ccc(OS(=O)(=O)O)cc4CC[C@H]3[C@@H]1CCC2=O [E3S, Estrone-3-sulfate, reference compound]

SMILES: CC(C)Oc1ccc(-c2nn([C@@H](C)c3oc4ccc(F)cc4c(=O)c3-c3cccc(F)c3)c3ncnc(N)c23)cc1F [umbralisib, Umbralisib]
incidence of ≥Grade 3 GI toxicity, including diarrhea and colitis [2]: higher than 10% | Vz/F in human [3]: highest Vz/F among these drugs | exposure in the intestines versus plasma [4]: 100 fold
